What was measured:
[1] = system: S1 and S1-M1-80 (characteristic expression of ABCG2/BCRP); assay: Anti-drug resistance test (MTT, resistance index); assay type: cell-based; settings: S1-M1-80 (ABCG2/BCRP) versus S1 cells, 72 h, from IC50
Procedure: Logarithmic growth phase S1 and S1-M1-80 (characteristic expression of ABCG2/BCRP) were prepared as cell suspension of 2.5×10^4 cells/ml and 6×10^4 cells/ml, and were seeded in into 96-well plates with 0.19 ml/well. After incubating in cell incubator for 24 hours at 37° C., 5% CO2, sample solutions in various concentrations were added at 0.01 ml/well. Stroke-physiological saline solution is used as control well. Each treatment is conducted in 3 parallel wells. The drugs were added and incubated additional 72 h hours. And 5 mg/ml of MTT is added at 0.02 ml/well before four hours of the end the incubation. The culture liquid is removed at the end of incubation. Each well was added 0.1 ml of DMSO and OD values were measured at wavelength of 540 nm and reference wavelength of 655 nm. The experiment was repeated three times. Equation 1 is used to calculate cell growth inhibition rate (IR); and Equation 2 is used to calculate resistance index. Bliss method is used to calculate the 50% inhibitory concentration (IC50).

[2] = system: human multiple myeloma cells NCI-H929 xenografts; assay: Tumor inhibitory effect on multiple myeloma cells NCI-H929 xenografts in nude mice; assay type: in vivo, BALB/c nude mouse
Procedure: Multiple myeloma cells were routinely passaged in vitro, inoculated in 40 6-7-week-old BALB/c nude mouse, each mouse was subcutaneously injected human multiple myeloma cells NCI-H929 at its right axillary. Weighed after two days. The mice were randomly divided into five groups, eight in each group. Each group was dosed as follows: • i. physiological saline control group • ii. Topotecan positive control group, 2 mg/kg, once every 4 days, intraperitoneal injection • iii. WQ1001, high-dose group, 35 mg/kg, once every 4 days, intraperitoneal injection • iv. WQ1001, middle dose group, 25 mg/kg, once every 4 days, intraperitoneal injectionv. v. WQ1001, low dose group, 18 mg/kg, once every 4 days, intraperitoneal injection
Body weight(BW) as well as long diameter and short diameter of tumors were measured every two days. Tumor volume was calculated according to the Equation 1. On the 11th day after inoculation, the mice were weighed, long diameter and short diameter of tumors were measured, and relative tumor volume (RTV) was calculated according to Equation 2. Mice were sacrificed by cervical dislocation and the tumor mass was stripped and weighed. Inhibition rate (IR) was calculated according to the Equation 3. RTV and tumor weight (TW) for each group were analyzed through T-test.

[3] = Water-solubility test of compounds of Formula II and Formula IV; assay type: physicochemical; settings: the C-20 phosphite salt (Formula II) itself, read-out: Water-solubility of Comp of Formula II
[4] = Topotecan 2 mg/kg, once every 4 days, intraperitoneal, 11th day
[5] = Topotecan 2 mg/kg, once every 4 days, intraperitoneal, end (11th day after inoculation)
[6] = Topotecan 2 mg/kg, once every 4 days, intraperitoneal, initial

| Structure (SMILES) | Resistance index [1] | solubility [3] [µg/mL] | further results |
| --- | --- | --- | --- |
| CCc1c2c(nc3ccc(O)cc13)-c1cc3c(c(=O)n1C2)COC(=O)[C@]3(O)CC [SN38, reference compound] | 290 |  |  |
| CC[C@@]1(O)C(=O)OCc2c1cc1n(c2=O)Cc2cc3c(CN(C)C)c(O)ccc3nc2-1 [Topotecan, reference compound] | 210 |  | anti-tumor effect on NCI-H929 xenografts in nude mice (in words) ([2]; 2 mg/kg): no significant anti-tumor effect; IR By RTV % [2, 4]: 37.3%; IR By TW % [2, 4]: 52.0%; RTV (X ± SD) [2, 4]: 25.3 ± 14.8; TW (X ± SD, g) [2, 4]: 0.71 ± 0.44 g; Bw (X ± SD, g) end [2, 5]: 19.2 ± 1.3 g; TV (X ± SD, mm^3) End [2, 5]: 1123.2 ± 608.9 mm^3; Bw (X ± SD, g) initial [2, 6]: 17.2 ± 1.0 g; TV (X ± SD, mm^3) initial [2, 6]: 45.9 ± 6.0 mm^3 |
| CC[C@@]1(O[PH](=O)[O-])C(=O)OCc2c1cc1n(c2=O)Cc2cc3cc4c(cc3nc2-1)OCCO4.[Na+] [WQ1102] | 15 | > 10000 |  |
| CCc1c2c(nc3cc4c(cc13)OCCO4)-c1cc3c(c(=O)n1C2)COC(=O)[C@@]3(CC)O[PH](=O)[O-].[Na+] [WQ1103] |  | > 10000 |  |
| CC[C@@]1(O[PH](=O)[O-])C(=O)OCc2c1cc1n(c2=O)Cc2cc3cc4c(cc3nc2-1)OCO4.[Na+] [WQ1104] |  | > 10000 |  |
| CCc1c2c(nc3cc4c(cc13)OCO4)-c1cc3c(c(=O)n1C2)COC(=O)[C@@]3(CC)O[PH](=O)[O-].[Na+] [WQ1105] | 20 | > 10000 |  |
| CC[C@@]1(O[PH](=O)[O-])C(=O)OCc2c1cc1n(c2=O)Cc2cc3c(Cl)c4c(cc3nc2-1)OCO4.[Na+] [WQ1106] |  | > 10000 |  |
| CCc1c2c(nc3ccccc13)-c1cc3c(c(=O)n1C2)COC(=O)[C@@]3(CC)O[PH](=O)[O-].[Na+] [WQ1107] |  | > 10000 |  |
| CCc1c2c(nc3ccc(C)cc13)-c1cc3c(c(=O)n1C2)COC(=O)[C@@]3(CC)O[PH](=O)[O-].[Na+] [WQ1108] | 38 | > 10000 |  |
| CCc1c2c(nc3ccc(Cl)cc13)-c1cc3c(c(=O)n1C2)COC(=O)[C@@]3(CC)O[PH](=O)[O-].[Na+] [WQ1109] |  | > 10000 |  |
| CCc1c2c(nc3ccc(Br)cc13)-c1cc3c(c(=O)n1C2)COC(=O)[C@@]3(CC)O[PH](=O)[O-].[Na+] [WQ1110] |  | > 10000 |  |
| CCc1c2c(nc3cc(F)c(F)cc13)-c1cc3c(c(=O)n1C2)COC(=O)[C@@]3(CC)O[PH](=O)[O-].[Na+] [WQ1111] | 7 | > 10000 |  |
| CCc1c2c(nc3cc(F)c(C)cc13)-c1cc3c(c(=O)n1C2)COC(=O)[C@@]3(CC)O[PH](=O)[O-].[Na+] [WQ1112] |  | > 10000 |  |
| CCc1c2c(nc3cc(Cl)c(Cl)cc13)-c1cc3c(c(=O)n1C2)COC(=O)[C@@]3(CC)O[PH](=O)[O-].[Na+] [WQ1113] |  | > 10000 |  |
| CC[C@@]1(O[PH](=O)[O-])C(=O)OCc2c1cc1n(c2=O)Cc2c-1nc1ccccc1c2/C=N/OC(C)(C)C.[Na+] [WQ1114] | 19 | > 10000 |  |
| CC[C@@]1(O[PH](=O)[O-])C(=O)OCc2c1cc1n(c2=O)Cc2c-1nc1ccccc1c2CC[Si](C)(C)C.[Na+] [WQ1115] | 25 | > 10000 |  |
| CC[C@@]1(O[PH](=O)[O-])C(=O)OCc2c1cc1n(c2=O)Cc2c-1nc1ccccc1c2[Si](C)(C)C(C)(C)C.[Na+] [WQ1116] | 13 | > 10000 |  |
| CC[C@@]1(O[PH](=O)[O-])C(=O)OCc2c1cc1n(c2=O)Cc2cc3cc(Cl)ccc3nc2-1.[Na+] [WQ1117] | 9 | > 10000 |  |
| CC[C@@]1(O[PH](=O)[O-])C(=O)OCc2c1cc1n(c2=O)Cc2cc3cc(C)ccc3nc2-1.[Na+] [WQ1118] | 67 | > 10000 |  |
| CCc1ccc2nc3c(cc2c1)Cn1c-3cc2c(c1=O)COC(=O)[C@@]2(CC)O[PH](=O)[O-].[Na+] [WQ1119] |  | > 10000 |  |
| CCCc1ccc2nc3c(cc2c1)Cn1c-3cc2c(c1=O)COC(=O)[C@@]2(CC)O[PH](=O)[O-].[Na+] [WQ1120] |  | > 10000 |  |
| CCCCc1ccc2nc3c(cc2c1)Cn1c-3cc2c(c1=O)COC(=O)[C@@]2(CC)O[PH](=O)[O-].[Na+] [WQ1121] |  | > 10000 |  |
| CC[C@@]1(O[PH](=O)[O-])C(=O)OCc2c1cc1n(c2=O)Cc2c-1nc1ccccc1c2OC.[Na+] [WQ1122] | 5 | > 10000 |  |
| CC[C@@]1(O[PH](=O)[O-])C(=O)OCc2c1cc1n(c2=O)Cc2c-1nc1ccc(C)cc1c2OC.[Na+] [WQ1123] |  | > 10000 |  |
| CCc1ccc2nc3c(cc2c1OC)Cn1c-3cc2c(c1=O)COC(=O)[C@@]2(CC)O[PH](=O)[O-].[Na+] [WQ1124] |  | > 10000 |  |
| CCCc1ccc2nc3c(c(OC)c2c1)Cn1c-3cc2c(c1=O)COC(=O)[C@@]2(CC)O[PH](=O)[O-].[Na+] [WQ1125] |  | > 10000 |  |
| CCCCc1ccc2nc3c(c(OC)c2c1)Cn1c-3cc2c(c1=O)COC(=O)[C@@]2(CC)O[PH](=O)[O-].[Na+] [WQ1126] |  | > 10000 |  |

From patent publication US20160375042A1, “USE OF CAMPTOTHECIN DERIVATIVE IN PREPARING PHARMACEUTICAL USED FOR TREATING MULTIPLE MYELOMA” (priority 2014, published 2016)
